Measurements as given in US8222298B2, “Methods of correcting imbalance between bone resorption and bone formation and kits and compositions therefor” (CHU Sainte-Justine, priority 2007, dated 2012).

Assays:
[1] = system: adenylyl cyclase activity of forskolin-stimulated RAW 264.7 cells; assay: cAMP production in forskolin-stimulated RAW264.7 cells (enzyme immunoassay); type: cell-based, mouse; conditions: increasing doses, 10^-4M forskolin, 30 minutes at 37° C., no RANKL
Experimental: RAW264.7 cells were grown in culture medium without RANKL until confluence (7 days). Cells were then incubated with 10^−4M of forskolin in presence of various concentrations of melatonin (FIG. 9, panel A), 4-P-PDOT (FIG. 9, panel B) or both (FIG. 9, panel C). Concentrations ranged from 10^−11 to 10^−5M for melatonin and from […] to 10^−4M for 4-P-PDOT. In the double treatment group, cells were treated with increasing concentrations of melatonin (10^−11 to 10^−5M) to which 10^−6M of 4-P-PDOT was added. After 30 minutes incubation at 37° C., cells were lysed in TRIS-EDTA buffer supplemented with protease and phosphodiesterase inhibitors at 4° C. The cAMP content was determined in duplicate in 200 μL aliquot of the supernatant using an enzyme immunoassay kit. […]

[2] = system: RAW264.7 cells; assay: Cell apoptosis by DeadEnd fluorometric TUNEL system; type: cell-based, mouse; conditions: 10^-6M 4-P-PDOT with RANKL, 6 days
Experimental: RAW264.7 cells were grown in culture medium with RANKL for 6 days with or without 10^−6M of 4-P-PDOT. Cells were fixed in 3.7% of paraformaldehyde and permeabilized with 0.2% Triton™-X-100. A subset of cells were treated with DNase for 10 minutes at room temperature and served as positive controls. Cell apoptosis was determined using the DeadEnd™ fluorometric TUNEL system. This method measures fragmented DNA through the incorporation of fluorescent-labeled d-UTP. Permeabilized cells were incubated in equilibration buffer with a nucleotide mix and the enzyme that catalyzes the reaction for 1 hour at 37° C. Negative controls were incubated without the enzyme. After several rinses in SSC and PBS, cells were mounted and visualized by fluorescence microscopy.

[3] = system: male C57BL/6 mice; assay: Femur section histology (TRAP and Goldner staining) in treated mice; type: in vivo, mouse; conditions: 10 mg/kg intraperitoneally three times a week, 4 weeks
Experimental: The effect of 4-P-PDOT on the formation of bones has also been tested using 4-week old male C57BL/6 mice following weaning. Mice were injected intraperitoneally with 10 mg/kg of 4-P-PDOT three times a week for 4 weeks (28 days). After this period, femur sections were stained to quantify tartrate-resistant acidic phosphatase- (TRAP-) positive osteoclasts (i.e. “active” osteoclasts). […] A Goldner staining was also performed on the femur sections in order to quantify the total number of osteoclasts.

[4] = system: male C57Bl/6j mice; assay: Low-BMD mouse model: weight gain and bone densitometry over 35 days; type: in vivo; conditions: 10 mg/kg intraperitoneally three times a week, first 35 days
Experimental: In parallel, control animals received injections of a solution made of water and ethanol (20%). During this period, animals were subjected to weekly bone densitometric measurements (BMD and bone mineral content (BMC)) with a PixiMus™ II bone densitometer, and blood and urine collection. Scan of individual spine, long bones (femurs), were performed. Scans of tibiae, radius and mandible were also performed. To monitor bone formation rate, 25 mg/kg of tetracycline hydrochloride was injected on days 10 and 20 following the beginning of the injections. Bone histomorphometry for bone formation and resorption static and dynamic parameters were also measured. The biochemical markers used are alkaline phosphatase for bone formation, and urinary deoxypyridinoline for bone resorption.

[5] = system: RAW264.7 cells; assay: Cell proliferation by tritiated thymidine incorporation; type: cell-based, mouse; conditions: 10^-6M 4-P-PDOT with RANKL, 2.5 days
Experimental: After 24 hour attachment, RAW264.7 cells were serum-starved overnight and then grown for 2.5 days in culture medium containing RANKL and melatonin (10^−7 or 10^−6M), or melatonin (10^−6M) and a melatonin receptor non-specific antagonist, luzindole (10^−8M), or melatonin (10^−6M) and 4-P-PDOT (10^−6M), or luzindole (10^−6M), or 4-P-PDOT (10^−6M) alone. Thymidine incorporation was assayed by the addition of 0.02 μCi/μL of tritiated thymidine to the medium 8 hours before cell harvest. Cells were then washed twice with ice-cold PBS and three times with cold 5% trichloroacetic acid. Cells were lysed in a mixture of 0.5N NaOH and 0.5% SDS and radioactivity of the lysates determined using a beta-counter.

[6] = system: RANK; assay: RANK expression by RT-PCR in RAW264.7 cell-derived osteoclasts; type: cell-based, mouse; conditions: RT-PCR after 6 days of treatment; 10^-9M melatonin, 10^-6M 4-P-PDOT
Experimental: The effect of melatonin and of 4-P-PDOT on the expression of various genes involved in osteoclast differentiation and activity was evaluated by RT-PCR after 6 days of treatment.

[7] = system: RAW264.7 cells; assay: Osteoclast differentiation measured by TRAP staining of RANKL-treated RAW264.7 cells; type: cell-based, mouse; conditions: 2.5 or 6 days
Experimental: Cellular model RAW264.7 (mouse macrophage cell line, ATCC # TIB-71). These cells differentiate in osteoclast-like cells upon addition of receptor activator of nuclear factor-kappaB ligand (RANKL). Cell differentiation usually occurs within two days. Cells were studied at 2.5 (early stage), 6 and 10 days (late stage) following RANKL addition. Experimental treatments: In some experiments, 4-P-PDOT was added to the cells at the same time as RANKL at a concentration of 10^−6M. Cells cultured with RANKL only served as controls. In order to assess osteoclastogenesis, RAW264.7 cells were cultured with RANKL for 2.5 or 6 days with and without 10^−6M of 4-P-PDOT. RAW264.7 cells were fixed with paraformaldehyde and stained for TRAP activity (marker of active osteoclasts) at 2.5 and 6 days of differentiation. Positive-stained cells with more than 3 nuclei were counted in eight different microscopic fields done in quadruplicate. Results are presented in FIGS. 3A and B for the 2.5 or 6 days experiments, respectively. […] The effect of melatonin on osteoclastogenesis and osteoclast function was assessed with the same methods as those described in Examples 2 and 3 above except that cells were grown in the presence of 10^−9M of melatonin in addition to RANKL. In some experiments, melatonin was added along with 10^−6M of 4-P-PDOT. Cells treated with RANKL alone served as controls.

[8] = system: RAW 264.7 cells; assay: Bone resorption assay on resorbable bone analog (BioCoat Osteologic discs); type: cell-based, mouse; conditions: 10^-9M melatonin with RANKL, 10 days culture
Experimental: Osteoclast activity was determined using a resorbable bone analog (BioCoat™ Osteologic™ discs, BD Biosciences). RAW 264.7 cells were plated on 16-well plates coated with this analog. 24 hours post-plating, cells were treated with RANKL alone or with RANKL+10^−6M of 4-P-PDOT for a period of 10 days. In another set of experiments, 10^−6M of 4-P-PDOT was added after 6 days of culture with RANKL and cells were cultured for an additional 4 days in order to examine the effects of 4-P-PDOT on more mature cells. At the end of the culture period, cells were detached with bleach and bone analog stained with 5% silver nitrate according to manufacturer's instructions to reveal the presence of resorbed bone area (resorption pits). The number of pits and the area of resorbed bone were quantified in 8 microscopic fields in duplicate using Bioquant™ software. The effect of melatonin on osteoclastogenesis and osteoclast function was assessed with the same methods as those described in Examples 2 and 3 above except that cells were grown in the presence of 10^−9M of melatonin in addition to RANKL. In some experiments, melatonin was added along with 10^−6M of 4-P-PDOT. Cells treated with RANKL alone served as controls.

CCC(=O)NC1Cc2ccccc2C(c2ccccc2)C1 (stereo not shown) [4-P-PDOT, 4-phenyl-2-propionamidotetralin]
cAMP production [1]: cAMP production increases
apoptosis, treated vs. untreated cells [2]: comparable
number of active (TRAP-positive) osteoclasts in femur sections vs control mice [3]: significant reduction
number of total osteoclasts (Goldner staining) in femur sections [3]: increased
reduction in the relative number of active osteoclasts vs vehicle-treated mice [3]: about 3 fold
relative number of total osteoclasts vs vehicle-treated mice [3]: increased
trabecular bone (Goldner staining) in femur sections [3]: increased
bone mineral accretion at the spine and whole body level vs vehicle-injected animals [4]: increase
weight gain vs vehicle-injected animals [4]: increase
cell proliferation, treated vs. untreated cells [5]: comparable
RANK's expression [6]: significant decrease
number of TRAP+ cells (osteoclast differentiation) ([7]; 10^-6M 4-P-PDOT with RANKL): reduces the number of TRAP+ cells

COc1ccc2[nH]cc(CCNC(C)=O)c2c1 [melatonin]
cAMP production [1]: inhibited
RANK's expression [6]: significant decrease
bone resorption (resorption pits, resorbed area) [8]: significantly reduced bone resorption
effect on osteoclastogenesis (TRAP-positive cells) ([7]; 10^-9M melatonin with RANKL): did not have a significant effect
